From ChEMBL document CHEMBL1649565, “Besifloxacin, a novel fluoroquinolone, has broad-spectrum in vitro activity against aerobic and anaerobic bacteria” (Antimicrob Agents Chemother, 2009)
Calls of active or inactive are those of the source. The rule behind the calls is not given here.

Tests used:
[1] = test system: Morganella morganii; experiment: Antibacterial activity against Morganella morganii by CLSI M7-A7 method; assay type: functional
[2] = test system: Klebsiella pneumoniae; experiment: Antibacterial activity against Klebsiella pneumoniae by CLSI M7-A7 method; assay type: functional
[3] = test system: Moraxella catarrhalis; experiment: Antibacterial activity against Moraxella catarrhalis by CLSI M7-A7 method; assay type: functional
[4] = test system: Staphylococcus epidermidis; experiment: Antibacterial activity against ciprofloxacin-susceptible and methicillin-resistant Staphylococcus epidermidis by CLSI M100-S18 method; assay type: functional
[5] = test system: Pseudomonas aeruginosa; experiment: Antibacterial activity against ciprofloxacin-susceptible Pseudomonas aeruginosa by CLSI M7-A7 method; assay type: functional
[6] = test system: Listeria monocytogenes; experiment: Antibacterial activity against Listeria monocytogenes by CLSI M100-S18 method; assay type: functional
[7] = test system: Haemophilus influenzae; experiment: Antibacterial activity against ciprofloxacin-susceptible Haemophilus influenzae assessed as percent susceptible isolates by CLSI M7-A7 method; assay type: functional
[8] = test system: Staphylococcus hominis; experiment: Antibacterial activity against Staphylococcus hominis by CLSI M100-S18 method; assay type: functional
[9] = test system: Proteus mirabilis; experiment: Antibacterial activity against Proteus mirabilis assessed as percent susceptible isolates by CLSI M7-A7 method; assay type: functional
[10] = test system: Staphylococcus aureus; experiment: Antibacterial activity against non-ciprofloxacin-susceptible and methicillin-susceptible Staphylococcus aureus assessed as percent susceptible isolates by CLSI M100-S18 method; assay type: functional
[11] = test system: Serratia marcescens; experiment: Antibacterial activity against Serratia marcescens by CLSI M7-A7 method; assay type: functional
[12] = test system: Streptococcus pyogenes; experiment: Antibacterial activity against Streptococcus pyogenes by CLSI M100-S18 method; assay type: functional
[13] = test system: Streptococcus pneumoniae; experiment: Antibacterial activity against levofloxacin-susceptible Streptococcus pneumoniae by CLSI M100-S18 method; assay type: functional
[14] = test system: Staphylococcus lugdunensis; experiment: Antibacterial activity against Staphylococcus lugdunensis assessed as percent susceptible isolates by CLSI M100-S18 method; assay type: functional
[15] = test system: Enterobacter cloacae; experiment: Antibacterial activity against Enterobacter cloacae by CLSI M7-A7 method; assay type: functional
[16] = test system: Streptococcus sp.; experiment: Antibacterial activity against Lancefield Streptococcus sp. group F by CLSI M100-S18 method; assay type: functional
[17] = Antibacterial activity against Lancefield Streptococcus sp. 'group G' by CLSI M100-S18 method; assay type: functional
[18] = test system: Klebsiella oxytoca; experiment: Antibacterial activity against Klebsiella oxytoca by CLSI M7-A7 method; assay type: functional
[19] = test system: Acinetobacter baumannii; experiment: Antibacterial activity against Acinetobacter baumannii by CLSI M7-A7 method; assay type: functional
[20] = test system: Staphylococcus epidermidis; experiment: Antibacterial activity against non-ciprofloxacin-susceptible and methicillin-susceptible Staphylococcus epidermidis by CLSI M100-S18 method; assay type: functional
[21] = test system: Streptococcus oralis; experiment: Antibacterial activity against Streptococcus oralis by CLSI M100-S18 method; assay type: functional
[22] = test system: Haemophilus influenzae; experiment: Antibacterial activity against ciprofloxacin-susceptible Haemophilus influenzae by CLSI M7-A7 method; assay type: functional
[23] = test system: Staphylococcus lugdunensis; experiment: Antibacterial activity against Staphylococcus lugdunensis by CLSI M100-S18 method; assay type: functional
[24] = test system: Streptococcus agalactiae; experiment: Antibacterial activity against Streptococcus agalactiae by CLSI M100-S18 method; assay type: functional
[25] = test system: Staphylococcus epidermidis; experiment: Antibacterial activity against ciprofloxacin-susceptible and methicillin-resistant Staphylococcus epidermidis assessed as percent susceptible isolates by CLSI M100-S18 method; assay type: functional
[26] = test system: Streptococcus equinus; experiment: Antibacterial activity against Streptococcus bovis by CLSI M100-S18 method; assay type: functional
[27] = test system: Citrobacter freundii; experiment: Antibacterial activity against Citrobacter freundii by CLSI M7-A7 method; assay type: functional
[28] = test system: Acinetobacter calcoaceticus; experiment: Antibacterial activity against Acinetobacter calcoaceticus by CLSI M7-A7 method; assay type: functional
[29] = test system: Staphylococcus warneri; experiment: Antibacterial activity against Staphylococcus warneri by CLSI M100-S18 method; assay type: functional
[30] = test system: Klebsiella aerogenes; experiment: Antibacterial activity against Enterobacter aerogenes assessed as percent susceptible isolates by CLSI M7-A7 method; assay type: functional
[31] = test system: Proteus mirabilis; experiment: Antibacterial activity against Proteus mirabilis by CLSI M7-A7 method; assay type: functional
[32] = test system: Staphylococcus saprophyticus; experiment: Antibacterial activity against Staphylococcus saprophyticus assessed as percent susceptible isolates by CLSI M100-S18 method; assay type: functional
[33] = test system: Staphylococcus haemolyticus; experiment: Antibacterial activity against Staphylococcus haemolyticus assessed as percent susceptible isolates by CLSI M100-S18 method; assay type: functional
[34] = test system: Legionella pneumophila; experiment: Antibacterial activity against Legionella pneumophila by CLSI M7-A7 method; assay type: functional
[35] = test system: Haemophilus influenzae; experiment: Antibacterial activity against non-ciprofloxacin-susceptible Haemophilus influenzae by CLSI M7-A7 method; assay type: functional
[36] = test system: Enterobacter cloacae; experiment: Antibacterial activity against Enterobacter cloacae assessed as percent susceptible isolates by CLSI M7-A7 method; assay type: functional
[37] = test system: Citrobacter freundii; experiment: Antibacterial activity against Citrobacter freundii assessed as percent susceptible isolates by CLSI M7-A7 method; assay type: functional
[38] = test system: Streptococcus pneumoniae; experiment: Antibacterial activity against non-levofloxacin susceptible Streptococcus pneumoniae assessed as percent susceptible isolates by CLSI M100-S18 method; assay type: functional
[39] = test system: Staphylococcus haemolyticus; experiment: Antibacterial activity against Staphylococcus haemolyticus by CLSI M100-S18 method; assay type: functional
[40] = test system: Enterococcus faecium; experiment: Antibacterial activity against vancomycin- resistant Enterococcus faecium by CLSI M100-S18 method; assay type: functional
[41] = test system: Staphylococcus epidermidis
[42] = test system: Staphylococcus warneri; experiment: Antibacterial activity against Staphylococcus warneri assessed as percent susceptible isolates by CLSI M100-S18 method; assay type: functional
[43] = test system: Stenotrophomonas maltophilia; experiment: Antibacterial activity against levofloxacin-susceptible Stenotrophomonas maltophilia by CLSI M7-A7 method; assay type: functional
[44] = test system: Staphylococcus aureus; experiment: Antibacterial activity against non-ciprofloxacin-susceptible and methicillin-susceptible Staphylococcus aureus by CLSI M100-S18 method; assay type: functional
[45] = test system: Citrobacter koseri; experiment: Antibacterial activity against Citrobacter koseri by CLSI M7-A7 method; assay type: functional
[46] = test system: Streptococcus pneumoniae; experiment: Antibacterial activity against levofloxacin susceptible Streptococcus pneumoniae assessed as percent susceptible isolates by CLSI M100-S18 method; assay type: functional
[47] = test system: Staphylococcus aureus; experiment: Antibacterial activity against ciprofloxacin-susceptible and methicillin-resistant Staphylococcus aureus assessed as percent susceptible isolates by CLSI M100-S18 method; assay type: functional

C[C@H]1COc2c(N3CCN(C)CC3)c(F)cc3c(=O)c(C(=O)O)cn1c23.C[C@H]1COc2c(N3CCN(C)CC3)c(F)cc3c(=O)c(C(=O)O)cn1c23.O [LEVOFLOXACIN]
MIC50 [1]: 0.06 µg/mL
MIC90 [1]: 8 µg/mL
MIC50 [2]: 0.06 µg/mL
MIC90 [2]: 2 µg/mL
MIC50 [3]: 0.015 µg/mL
MIC90 [3]: 0.015 µg/mL
MIC [4]: 0.12 µg/mL
MIC50 [4]: 0.12 µg/mL
MIC50 [5]: 0.5 µg/mL
MIC90 [5]: 1 µg/mL
MIC50 [6]: 0.5 µg/mL
MIC90 [6]: 1 µg/mL
Activity [7]: 100%
MIC50 [8]: 8 µg/mL
MIC90 [8]: > 8 µg/mL
Activity [9]: 76%
Activity [10]: 0%
MIC50 [11]: 0.12 µg/mL
MIC90 [11]: 0.5 µg/mL
MIC50 [12]: 0.5 µg/mL
MIC90 [12]: 0.5 µg/mL
MIC50 [13]: 0.5 µg/mL
MIC90 [13]: 0.5 µg/mL
Activity [14]: 66.7%
MIC50 [15]: 0.03 µg/mL
MIC90 [15]: 0.25 µg/mL
MIC50 [16]: 0.5 µg/mL
MIC90 [16]: 0.5 µg/mL
MIC50 [17]: 0.5 µg/mL
MIC90 [17]: 0.5 µg/mL
MIC50 [18]: 0.03 µg/mL
MIC90 [18]: 0.5 µg/mL
MIC50 [19]: 8 µg/mL
MIC90 [19]: 64 µg/mL
MIC50 [20]: 8 µg/mL
MIC50 [21]: 1 µg/mL
MIC90 [21]: 4 µg/mL
MIC50 [22]: 0.015 µg/mL
MIC90 [22]: 0.015 µg/mL
MIC50 [23]: 0.25 µg/mL
MIC90 [23]: > 8 µg/mL
MIC [24]: 0.5 µg/mL
MIC50 [24]: 0.5 µg/mL
MIC90 [24]: 0.5 µg/mL
Activity [25]: 100%
MIC50 [26]: 1 µg/mL
MIC90 [26]: 4 µg/mL
MIC50 [27]: 0.06 µg/mL
MIC90 [27]: 2 µg/mL
MIC50 [28]: 0.5 µg/mL
MIC90 [28]: 8 µg/mL
MIC50 [29]: 0.12 µg/mL
MIC90 [29]: > 8 µg/mL
Activity [30]: 80%
MIC50 [31]: 0.03 µg/mL
MIC90 [31]: 8 µg/mL
Activity [32]: 100%
Activity [33]: 37.6%
MIC50 [34]: 0.03 µg/mL
MIC90 [34]: 0.03 µg/mL
MIC50 [35]: 8 µg/mL
MIC90 [35]: 16 µg/mL
Activity [36]: 92%
Activity [37]: 90%
Activity [38]: 0%
MIC50 [39]: 4 µg/mL
MIC90 [39]: > 8 µg/mL
MIC50 [40]: 32 µg/mL
MIC90 [40]: 128 µg/mL
MIC90 [41]: inactive
Activity [42]: 74%
MIC [43]: 4 µg/mL
MIC50 [44]: > 8 µg/mL
MIC90 [44]: > 8 µg/mL
MIC50 [45]: 0.03 µg/mL
MIC90 [45]: 0.12 µg/mL
Activity [46]: 100%
Activity [47]: 100%
